The source of these data is US10071985B2, “Therapeutic compounds” (Gilead Sciences, Inc., priority 2016, dated 2018).

Data set [1] is described as follows: Test C: Pharmacokinetic analysis following intravenous administration to Sprague-Dawley rats. It counts as in vivo. The following applies: for clearance: read-out: Rat CL (converted); for AUC(0-inf): t = 0 to infinity, read-out: Rat AUCinf; for Cmax: maximum plasma concentration.
From the text: (§1) Test C. Pharmacokinetic Analysis Following Intravenous Administration to Sprague-Dawley Rats and Beagle Dogs and Cynomologous Monkeys
All IV formulations were in solution.
(§2) Each rat IV dosing group consisted of 3 male SD rats. […] The animals were fasted overnight prior to dose administration and up to 4 hr after dosing. Each dog IV dosing group consisted of 3 male, naïve beagle dogs. At dosing, the animals weighed ˜10-12 kg. The animals were fasted overnight prior to dose administration and up to 2 hr after dosing.
(§3) For the IV infusion group, the test compound was administered by intravenous infusion over 30 minutes. The rate of infusion was adjusted according to the body weight of each animal to deliver a dose of 1 mg/kg at 2 mL/kg.
(§4) Serial venous blood samples (approximately 0.4 mL each for rat and 1.0 mL for dog) were taken at specified time points after dosing from each animal. The blood samples were collected into Vacutainer™ tubes (Becton-Dickinson Corp, New Jersey, USA) containing EDTA as the anti-coagulant and were immediately placed on wet ice pending centrifugation for plasma. Centrifugation began within 1 hour of collection. All samples were placed into 96-well tubes and maintained on dry ice prior to storage at approximately −70° C.
(§5) An LC/MS/MS method was used to measure the concentration of test compounds in plasma.
(§6) Non-compartmental pharmacokinetic analysis was performed on the plasma concentration-time data.
The nature of data set [2]: Test B: Cytotoxicity Assay. To be noted: human.
Method: Compound cytotoxicity and the corresponding CC50 values was determined using the same protocol as described in the antiviral assay (Test A) except that uninfected cells were used.
The test system of a further data set is HIV-IIIb. In words: Test A: Antiviral Assay in MT4 Cells. It counts as cell-based, HIV-1.
A short description of data set [3]: Test C: Pharmacokinetic analysis following intravenous administration to cynomolgus monkeys. It counts as in vivo, cynomolgus (cyno) monkey. The following applies: male, cynomolgus monkey, 1 mg/kg; for AUC(0-inf): t = 0 to infinity, read-out: Cyno AUCinf; for Cmax: maximum plasma concentration, read-out: Cyno Cmax.
Method: as §1
All IV formulations were in solution.
Each cynomolgus (cyno) monkey IV dosing group consisted of 3 male, naïve cyno monkeys At dosing, the animals weighed ˜3.2-4 kg. The animals were fasted overnight prior to dose administration and up to 2 hr after dosing.
as §3, §4, §5, §6
Another data set concerns Human Liver Hepatocytes. As to the kind of experiment: Test D: Metabolic Stability in Cultured Human Liver Hepatocytes. It is filed as in vitro ADME. To be noted: pooled cryopreserved hepatocytes, […] radiolabelled compound, 0-6 hours; calculated from stability data.
Data set [4] can be described thus: Test C: Pharmacokinetic analysis following intravenous administration to beagle dogs. It is filed as in vivo.
From the text: as §1
All IV formulations were in solution.
as §2, §3, §4, §5, §6
[5] abbreviates: male, Sprague-Dawley, rat, plasma, iv, 1 mg/kg.
The mark [6] stands for this setting: male, Sprague-Dawley, rat, plasma, IV infusion over 30 minutes, 1 mg/kg.
[7] abbreviates: male, Sprague-Dawley, rat, IV infusion over 30 minutes, 1 mg/kg.
[8] abbreviates: plasma, IV infusion over 30 minutes.
Where [9] appears, read: Human immunodeficiency virus 1, IIIB, MT4, 120 h.

Structures are written as SMILES. pEC50: −log10 of the molar value. Where two headings read alike, the source gives them in different places.

Method for HIV-IIIb: 1 mL Aliquots of MT4 cells were pre-infected for 3 hours at 37° C. with 25 μL of cell growth medium (mock-infected) or a fresh 1:250 dilution of an HIV-IIIb concentrated ABI stock (0.004 m.o.i.). Infected and uninfected cells were diluted in cell growth media and 35 μL (2000 cells) was added to each well of the assay plates.
Assay plates were then maintained in a humidified, 5% CO2 incubator at 37° C. After 5 days of incubation, 25 μl of 2× concentrated CellTiter-Glo™ Reagent (catalog #G7573, Promega Biosciences, Inc., Madison, Wis.) was added to each well of the assay plate. Cell lysis was carried out by incubating at room temperature for 10 minutes and then chemiluminescence was read using an Envision plate reader (PerkinElmer).
Method for Human Liver Hepatocytes: Test D. Metabolic Stability in Cultured Human Liver Hepatocytes
The final hepatocyte concentration was 1 million cells/mL. The hepatocyte/compound reaction mixture was dissolved in InVitroGRO™ KHB buffer (catalog #Z99074, BioreclamationIVT, Inc., Baltimore, Md.) at pH 7.4. The incubations were performed in duplicate. A cell free control and a positive control were included in the incubations. The incubations were carried out with gentle shaking in a 37° C. incubator under a humid atmosphere of 95% air/5% CO2 (v/v). Aliquots (100 mL) were removed after 0, 1, 3, and 6 hours and added to 200 mL quenching solution that comprised 0.1% (v/v) TFA in 5% water/95% acetonitrile (v/v). The samples were placed on a shaker for 10 min, followed by centrifugation at 3000 g for 30 min. The samples of the supernatant were analyzed on a Dionex HPLC/PerkinElmer Flow Scintillation Analyzer as described below.
The column was a Phenomenex Synergi fusion RP (150×4.6 mm, 4 mm) maintained at 32 degrees Celsius. Mobile Phase A consisted of 0.1% (v/v) TFA in 99% water/1% acetonitrile (v/v). Mobile Phase B consisted of 0.1% (v/v) TFA in 5% water/95% acetonitrile (v/v). […]
Metabolic stability was determined by measuring the change in relative abundance of metabolites and parent over time and calculating from it the rate of disappearance of the parent compound. […]

On to `CC(C)(C#Cc1ccc(-c2ccc(Cl)c3c(NS(C)(=O)=O)nn(CC(F)(F)F)c23)c([C@H](Cc2cc(F)cc(F)c2)NC(=O)Cn2nc(C(F)(F)F)c3c2C(F)(F)[C@@H]2C[C@H]32)n1)S(C)(=O)=O` [Compound 24, N—((S)-1-(3-(4-chloro-3-(methylsulfonamido)-1-(2,2,2-trifluoroethyl)-1H-indazol-7-yl)-6-(3-methyl-3-(methylsulfonyl)but-1-yn-1-yl)pyridin-2-yl)-2-(3,5-difluorophenyl)ethyl)-2-((3bS,4aR)-5,5-difluoro-3-(trifluoromethyl)-3b,4,4a,5-tetrahydro-1H-cyclopropa[3,4]cyclopenta[1,2-c]pyrazol-1-yl)acetamide], for which the clearance in data set [1] (setting [5]) is 0.833 mL/min/kg. Also, the AUC(0-inf) came to 19 µM·h in data set [1] (setting [6]) and 4.5 µM·h in data set [3] (setting [8]). Also, the Cmax came out at 1800 nM in data set [1] (setting [7]) and 1300 nM in data set [3] (IV infusion over 30 minutes). In data set [2] (uninfected MT4 cells), this compound displayed a CC50 at 5 days of 30100 nM. In addition, the pEC50 in the data set with HIV-IIIb (Human immunodeficiency virus 1, 120 h, MT4 cells infected with HIV-IIIb, 5 days incubation, CellTiter-Glo, read-out: EC50) is 9.73. Besides, the “Predicted Human Hepatic Clearance” value in the data set on Human Liver Hepatocytes was 0.17 mL/min/kg.

`CC(C)(C#Cc1ccc(-c2ccc(Cl)c3c(NS(=O)(=O)C4CC4)nn(CC(F)F)c23)c([C@H](Cc2cc(F)cc(F)c2)NC(=O)Cn2nc(C(F)F)c3c2C(F)(F)[C@@H]2C[C@H]32)n1)S(C)(=O)=O` [Compound 38, N—((S)-1-(3-(4-chloro-3-(cyclopropanesulfonamido)-1-(2,2-difluoroethyl)-1H-indazol-7-yl)-6-(3-methyl-3-(methylsulfonyl)but-1-yn-1-yl)pyridin-2-yl)-2-(3,5-difluorophenyl)ethyl)-2-((3bS,4aR)-3-(difluoromethyl)-5,5-difluoro-3b,4,4a,5-tetrahydro-1H-cyclopropa[3,4]cyclopenta[1,2-c]pyrazol-1-yl)acetamide]: in data set [4] (compared to compounds A and B), the “in vivo clearance and terminal half-life in dog compared to compounds A and B” value is reported as “similar”. The clearance in data set [4] (male, beagle, dog, plasma, iv, 1 mg/kg, read-out: Dog CL (converted)) was 5.5 mL/min/kg; in data set [1] (setting [5]), 1.33 mL/min/kg; in data set [3] (plasma, iv, read-out: Cyno CL (converted)), 3.5 mL/min/kg. The half-life is 7 h in data set [4] (male, beagle, dog, plasma, iv, 1 mg/kg, read-out: Dog t1/2 (converted)); 19 h in data set [1] (male, Sprague-Dawley, rat, plasma, iv, 1 mg/kg, read-out: Rat t1/2 (converted)); 9.5 h in data set [3] (plasma, iv, read-out: Cyno t1/2 (converted)). The AUC(0-inf) in data set [4] (male, beagle, dog, plasma, IV infusion over 30 minutes, 1 mg/kg, t = 0 to infinity, read-out: Dog AUCinf) came out at 3.3 µM·h; in data set [1] (setting [6]), 13 µM·h; in data set [3] (setting [8]) it was 4.9 µM·h. Also, the Vd came to 1.77 L/kg in data set [4] (male, beagle, dog, plasma, IV infusion over 30 minutes, 1 mg/kg, volume of distribution at steady state, read-out: Dog Vss); 1.8 L/kg in data set [1] (male, Sprague-Dawley, rat, plasma, IV infusion over 30 minutes, 1 mg/kg, volume of distribution at steady state, read-out: Rat Vss); 2.1 L/kg in data set [3] (plasma, IV infusion over 30 minutes, volume of distribution at steady state, read-out: Cyno Vss). Besides, the Cmax was 1600 nM in data set [4] (male, beagle, dog, IV infusion over 30 minutes, 1 mg/kg, maximum plasma concentration); 2400 nM in data set [1] (setting [7]); 1300 nM in data set [3] (IV infusion over 30 minutes). In addition, the “times longer in vivo terminal half-life in rat relative to compound A” value in data set [1] (relative to compound A) is listed as “about 9.5 times”. Besides, the “times lower in vivo clearance in rat relative to compound A” value in data set [1] (relative to compound A) was “about 6.3 times”. Further, in data set [1] (relative to compound B), the “times longer in vivo terminal half-life in rat relative to compound B” value is reported as “about 6.3 times”. For the same compound, in data set [1] (relative to compound B), the “times lower in vivo clearance in rat relative to compound B” value is “about 5.4 times”. The same compound returned a cytotoxic concentration (CC50) at 5 days in data set [2] of 55200 nM. Moreover, the pEC50 with HIV-IIIb (setting [9]) is 9.40. Further, the “times more potent in HIV antiviral assay relative to compound A” value in the data set on HIV-IIIb (relative to compound A) is given as “about 4 times”. For the same compound, the “times more potent in HIV antiviral assay relative to compound B” value in the data set with HIV-IIIb (relative to compound B) is “about 8 times”.

Consider `Cn1nc(NS(C)(=O)=O)c2c(Cl)ccc(-c3ccc(C#CC(C)(C)O)nc3[C@H](Cc3cc(F)cc(F)c3)NC(=O)Cn3nc(C(F)(F)F)c4c3C(F)(F)[C@@H]3C[C@H]43)c21` [Compound B, reference compound], for which, in the data set with HIV-IIIb (setting [9]), the pEC50 is 8.52.
